Measured values taken from US20260347338A1, “PYRIMIDINE/PYRIDINE DERIVATIVES OR SALTS THEREOF AND PHARMACEUTICAL COMPOSITIONS COMPRISING THE SAME” (YUHAN CORPORATION, priority 2023, published 2026).
Counter-ions that a name gives are not always drawn.

Molecular target: T1, human recombinant HPK1 (Homo sapiens, UniProt Q92918)
T1 construct: purchased BPS Bioscience
Experiment: Inhibitory activity against human recombinant HPK1 (TR-FRET)
Format: biochemical
Conditions: ULight-p70S6K peptide, ATP at Km, room temperature, 1 hour, 0.32 to 1000 nM compound
Method in brief: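 IC50 classes A–D use 10, 50 and 100 nM cut-offs, derived from TR-FRET signal inhibition relative to DMSO controls. Human recombinant HPK1 phosphorylated ULight-p70S6K peptide at Km ATP for 1 h, room temperature, pH 7.4; test range 0.32–1000 nM final, detection with Eu-labelled antibody after EDTA quench.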

T1 sequence (Q92918 whole entry): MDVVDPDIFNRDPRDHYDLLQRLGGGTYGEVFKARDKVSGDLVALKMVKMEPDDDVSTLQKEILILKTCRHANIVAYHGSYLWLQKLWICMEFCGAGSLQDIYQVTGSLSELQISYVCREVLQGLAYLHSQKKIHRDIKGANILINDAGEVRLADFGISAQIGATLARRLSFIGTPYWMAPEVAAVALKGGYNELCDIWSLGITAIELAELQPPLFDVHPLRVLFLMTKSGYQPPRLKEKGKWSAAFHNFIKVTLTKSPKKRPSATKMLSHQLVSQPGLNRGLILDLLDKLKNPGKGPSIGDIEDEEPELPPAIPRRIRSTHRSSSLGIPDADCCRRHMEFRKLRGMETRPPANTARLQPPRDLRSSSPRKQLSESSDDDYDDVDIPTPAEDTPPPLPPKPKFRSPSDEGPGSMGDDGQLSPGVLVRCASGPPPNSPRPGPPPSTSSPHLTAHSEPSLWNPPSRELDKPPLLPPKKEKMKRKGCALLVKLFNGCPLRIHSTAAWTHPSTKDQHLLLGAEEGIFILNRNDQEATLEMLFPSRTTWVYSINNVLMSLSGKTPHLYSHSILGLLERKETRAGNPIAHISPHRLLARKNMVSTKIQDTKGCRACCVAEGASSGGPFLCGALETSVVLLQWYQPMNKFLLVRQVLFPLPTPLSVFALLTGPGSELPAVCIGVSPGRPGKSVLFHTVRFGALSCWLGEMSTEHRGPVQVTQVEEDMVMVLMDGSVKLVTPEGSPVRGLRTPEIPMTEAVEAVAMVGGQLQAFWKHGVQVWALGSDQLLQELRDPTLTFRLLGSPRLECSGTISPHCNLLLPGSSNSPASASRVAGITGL

| Molecule | IC50 |
| --- | --- |
| COc1cc(CN(C)C)cc(F)c1-c1nccc(Nc2cc(N3CCC[C@H](N)C3)c(-c3cnn(CC(F)(F)F)c3)cn2)n1 [Example 105, (S)-N-(4-(3-aminopiperidin-1-yl)-5-(1-(2,2,2-trifluoroethyl)-1H-pyrazol-4-yl)pyridin-2-yl)-2-(4-((dimethylamino)methyl)-2-fluoro-6-methoxyphenyl)pyrimidin-4-amine hydrochloride] | ≤ 0.01 µM |
| O[C@H]1CCCN(c2cc(Nc3ccnc(-c4ccn5ncnc5c4)n3)ncc2-c2cnn(C3CCOCC3)c2)C1 [Example 26, (S)-1-(2-((2-([1,2,4]triazolo[1,5-a]pyridin-7-yl)pyrimidin-4-yl)amino)-5-(1-(tetrahydro-2H-pyran-4-yl)-1H-pyrazol-4-yl)pyridin-4-yl)piperidin-3-ol] | 0.05 to 0.1 µM |
| COc1cc(F)cc(F)c1-c1nccc(Nc2cc(N3CCC[C@H](O)C3)c(C#Cc3cnn(CC(F)(F)F)c3)cn2)n1 [Example 220, (S)-1-(2-((2-(2,4-difluoro-6-methoxyphenyl)pyrimidin-4-yl)amino)-5-((1-(2,2,2-trifluoroethyl)-1H-pyrazol-4-yl)ethynyl)pyridin-4-yl)piperidin-3-ol] | ≤ 0.01 µM |
| COc1cccc(F)c1-c1nccc(Nc2cc(N3CCCC(CC(F)(F)F)C3)c(-c3cnn(C4CCOCC4)c3)cn2)n1 (centres unmarked) [Example 84, 2-(2-fluoro-6-methoxyphenyl)-N-(5-(1-(tetrahydro-2H-pyran-4-yl)-1H-pyrazol-4-yl)-4-(3-(2,2,2-trifluoroethyl)piperidin-1-yl)pyridin-2-yl)pyrimidin-4-amine] | 0.01 to 0.05 µM |
| COc1cccc(F)c1-c1nc(Nc2cc(N3CCC[C@H](O)C3)c(-c3cnn(C(F)F)c3)cn2)ccc1N [Example 150, (3S)-1-(2-((5-amino-6-(2-fluoro-6-methoxyphenyl)pyridin-2-yl)amino)-5-(1-(difluoromethyl)-1H-pyrazol-4-yl)pyridin-4-yl)piperidin-3-ol] | ≤ 0.01 µM |
| (S)-1-(6′-ethoxy-6-((2-(2-fluoro-6-methoxyphenyl)pyrimidin-4-yl)amino)-[3,3′-bipyridin]-4-yl)piperidin-3-ol [Example 56] | 0.01 to 0.05 µM |
| COc1cccc(F)c1-c1nccc(Nc2cc(N3CCC[C@H](N)C3)c(-c3cnn(C4CCOCC4)c3)cn2)n1 [Example 52, (S)-N-(4-(3-aminopiperidin-1-yl)-5-(1-(tetrahydro-2H-pyran-4-yl)-1H-pyrazol-4-yl)pyridin-2-yl)-2-(2-fluoro-6-methoxyphenyl)pyrimidin-4-amine hydrochloride] | ≤ 0.01 µM |
| COc1cccc(F)c1-c1nccc(Nc2cc(N3CCC[C@H](O)C3)c(-c3ccc(CN4CC[C@H](F)C4)nc3)cn2)n1 [Example 39, (S)-1-(6-((2-(2-fluoro-6-methoxyphenyl)pyrimidin-4-yl)amino)-6′-(((S)-3-fluoropyrrolidin-1-yl)methyl)-[3,3′-bipyridin]-4-yl)piperidin-3-ol] | ≤ 0.01 µM |
| COc1cccc(F)c1-c1nccc(Nc2cc(N3CCC[C@H](N)C3)c(-c3ccc(F)c(F)c3)cn2)n1 [Example 294, (S)-N-(4-(3-aminopiperidin-1-yl)-5-(3,4-difluorophenyl)pyridin-2-yl)-2-(2-fluoro-6-methoxyphenyl)pyrimidin-4-amine hydrochloride] | ≤ 0.01 µM |
| CN[C@@H]1CCCN(c2cc(Nc3ccnc(-c4c(F)cccc4OC)n3)ncc2-c2cnn(C(F)F)c2)C1 [Example 123, (R)-N-(5-(1-(difluoromethyl)-1H-pyrazol-4-yl)-4-(3-(methylamino)piperidin-1-yl)pyridin-2-yl)-2-(2-fluoro-6-methoxyphenyl)pyrimidin-4-amine hydrochloride] | 0.01 to 0.05 µM |
| COc1cc(F)cc(F)c1-c1nccc(Nc2cc(N3C[C@@H](C)C[C@H](N)C3)c(-c3cnn(C(F)F)c3)cn2)n1 [Example 210, N-(4-((3S,5S)-3-amino-5-methylpiperidin-1-yl)-5-(1-(difluoromethyl)-1H-pyrazol-4-yl)pyridin-2-yl)-2-(2,4-difluoro-6-methoxyphenyl)pyrimidin-4-amine hydrochloride] | ≤ 0.01 µM |
| COc1cc(F)cc(F)c1-c1nc(Nc2cc(N3CC[C@@H](C)[C@H](N)C3)c(-c3cnn(C(F)F)c3)cn2)ccc1N [Example 215, N^2-(4-((3S,4R)-3-amino-4-methylpiperidin-1-yl)-5-(1-(difluoromethyl)-1H-pyrazol-4-yl)pyridin-2-yl)-6-(2,4-difluoro-6-methoxyphenyl)pyridin-2,5-diamine hydrochloride] | ≤ 0.01 µM |
| COc1cccc(F)c1-c1nccc(Nc2cc(N3CCC[C@H](N)C3)c(-c3ccc(C4CCOCC4)nc3)cn2)n1 [Example 82, (S)-4-(3-aminopiperidin-1-yl)-N-(2-(2-fluoro-6-methoxyphenyl)pyrimidin-4-yl)-6′-(tetrahydro-2H-pyran-4-yl)-[3,3′-bipyridin]-6-amine hydrochloride] | ≤ 0.01 µM |
| COc1cccc(F)c1-c1nccc(Nc2cc(N3CCC[C@H](N)C3)c(-c3ccc(N4CCOCC4)cc3)cn2)n1 [Example 286, (S)-N-(4-(3-aminopiperidin-1-yl)-5-(4-morpholinophenyl)pyridin-2-yl)-2-(2-fluoro-6-methoxyphenyl)pyrimidin-4-amine hydrochloride] | ≤ 0.01 µM |
| COc1cccc(F)c1-c1nc(Nc2cc(N3CCC[C@H](O)C3)c(-c3cnn(C4CCOCC4)c3)cn2)ccc1Cl [Example 75, (3S)-1-(2-((5-chloro-6-(2-fluoro-6-methoxyphenyl)pyridin-2-yl)amino)-5-(1-(tetrahydro-2H-pyran-4-yl)-1H-pyrazol-4-yl)pyridin-4-yl)piperidin-3-ol] | ≤ 0.01 µM |
| COc1cccc(F)c1-c1nccc(Nc2cc(N3CC[C@H](OC)[C@H](N)C3)c(-c3cnn(C(F)F)c3)cn2)n1 [Example 253, N-(4-((3R,4S)-3-amino-4-methoxypiperidin-1-yl)-5-(1-(difluoromethyl)-1H-pyrazol-4-yl)pyridin-2-yl)-2-(2-fluoro-6-methoxyphenyl)pyrimidin-4-amine] | ≤ 0.01 µM |
| COc1cccc(F)c1-c1nc(Nc2cc(N3CCC[C@H](O)C3)c(-c3cnn(C(F)F)c3)cn2)ccc1[N+](=O)[O-] [Example 145, (3S)-1-(5-(1-(difluoromethyl)-1H-pyrazol-4-yl)-2-((6-(2-fluoro-6-methoxyphenyl)-5-nitropyridin-2-yl)amino)pyridin-4-yl)piperidin-3-ol] | ≤ 0.01 µM |
| COc1cccc(F)c1-c1nccc(Nc2cc(N3CCC[C@H](O)C3)c(C#Cc3cnn(C(F)(F)F)c3)cn2)n1 [Example 8, (S)-1-(2-((2-(2-fluoro-6-methoxyphenyl)pyrimidin-4-yl)amino)-5-((1-(trifluoromethyl)-1H-pyrazol-4-yl)ethynyl)pyridin-4-yl)piperidin-3-ol] | 0.01 to 0.05 µM |
| COc1cccc(F)c1-c1nc(Nc2cc(N3CCC[C@H](O)C3)c(C(=O)NC3CC(F)(F)C3)cn2)ccc1[N+](=O)[O-] [Example 198, N-(3,3-difluorocyclobutyl)-6-((6-(2-fluoro-6-methoxyphenyl)-5-nitropyridin-2-yl)amino)-4-((S)-3-hydroxypiperidin-1-yl)nicotinamide] | ≤ 0.01 µM |
| COc1cccc(F)c1-c1nccc(Nc2cc(N3CCC[C@H](N)C3)c(-c3cc(C)c4c(c3)CCC(=O)N4)cn2)n1 [Example 262, (S)-6-(4-(3-aminopiperidin-1-yl)-6-((2-(2-fluoro-6-methoxyphenyl)pyrimidin-4-yl)amino)pyridin-3-yl)-8-methyl-3,4-dihydroquinolin-2(1H)-one hydrochloride] | ≤ 0.01 µM |
| COc1cccc(F)c1-c1nccc(Nc2cc(N3CC[C@H](NC(C)=O)C3)c(-c3cnn(C4CCOCC4)c3)cn2)n1 [Example 128, (S)-N-(1-(2-((2-(2-fluoro-6-methoxyphenyl)pyrimidin-4-yl)amino)-5-(1-(tetrahydro-2H-pyran-4-yl)-1H-pyrazol-4-yl)pyridin-4-yl)pyrrolidin-3-yl)acetamide] | > 0.1 µM |
| O[C@H]1CCCN(c2cc(Nc3ccnc(-c4c(F)cccc4F)n3)ncc2-c2cnn(C3CCOCC3)c2)C1 [Example 22, (S)-1-(2-((2-(2,6-difluorophenyl)pyrimidin-4-yl)amino)-5-(1-(tetrahydro-2H-pyran-4-yl)-1H-pyrazol-4-yl)pyridin-4-yl)piperidin-3-ol] | ≤ 0.01 µM |
| COc1cc(F)cc(F)c1-c1nccc(Nc2cc(N3CCC[C@H](N)C3)c(-c3cnn(C(F)(F)F)c3)cn2)n1 [Example 157, (S)-N-(4-(3-aminopiperidin-1-yl)-5-(1-(trifluoromethyl)-1H-pyrazol-4-yl)pyridin-2-yl)-2-(2,4-difluoro-6-methoxyphenyl)pyrimidin-4-amine hydrochloride] | ≤ 0.01 µM |
| COCCn1cc(-c2cnc(Nc3ccc(C(N)=O)c(-c4c(F)cccc4OC)n3)cc2N2CCC[C@H](O)C2)cn1 [Example 144, 2-(2-fluoro-6-methoxyphenyl)-6-((4-((S)-3-hydroxypiperidin-1-yl)-5-(1-(2-methoxyethyl)-1H-pyrazol-4-yl)pyridin-2-yl)amino)nicotinamide] | ≤ 0.01 µM |
| COc1cccc(F)c1-c1nccc(Nc2cc(N3CCC[C@H](O)C3)c(-c3ccc(CN4CCN(C)CC4)nc3)cn2)n1 [Example 30, (S)-1-(6-((2-(2-fluoro-6-methoxyphenyl)pyrimidin-4-yl)amino)-6′-((4-methylpiperazin-1-yl)methyl)-[3,3′-bipyridin]-4-yl)piperidin-3-ol] | 0.01 to 0.05 µM |
| COc1cccc(F)c1-c1nc(Nc2cc(N3CCC[C@H](N)C3)c(C#CC3CCOCC3)cn2)ccc1[N+](=O)[O-] [Example 155, 4-((S)-3-aminopiperidin-1-yl)-N-(6-(2-fluoro-6-methoxyphenyl)-5-nitropyridin-2-yl)-5-((tetrahydro-2H-pyran-4-yl)ethynyl)pyridin-2-amine hydrochloride] | ≤ 0.01 µM |
